Assay results reported in the supplement of paper PMC6045584.
± gives the standard deviation of the averaged measurements.

Experiments:
[1] = compound: Nc1nc2[nH]cnc2c(=S)[nH]1 [TIOGUANINE]; test: surviving fraction relative to DMSO-only wells; higher = less growth inhibition; conditions: exposure time: 5 days
Outline: (§1)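 Tumour cell lines were grown to log phase and seeded at 250–500 cells per well in 384-well plates. They were exposed continuously to inhibitors at 0.5, 1, 5, 10, 50, 100, 500 and 1000 nM for five days, beginning 24 hours after seeding. Surviving fraction is CellTiter-Glo luminescence normalised to the median of DMSO-only wells.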

[2] = compound: T1, CNC(=O)c1ccc(N2C(=S)N(c3ccc(C#N)c(C(F)(F)F)c3)C(=O)C2(C)C)cc1F [MDV3100]; test: as above; conditions: exposure time: 5 days
Outline: as §1

[3] = compound: Cn1cc(C2=Nc3cc(NC(=O)C(N)C4CCCCC4)cc4c3C2=CNNC4=O)cn1; test: as above; conditions: exposure time: 5 days
Outline: as §1

[4] = compound: T2, CC1(C)CC(=O)c2c(C(F)(F)F)nn(-c3ccc(C(N)=O)c(N[C@H]4CC[C@H](OC(=O)CN)CC4)c3)c2C1 [SNX-5422]; test: as above; conditions: exposure time: 5 days
Outline: as §1

[5] = compound: T3, CC[C@@H]1C(=O)N(C)c2cnc(Nc3ccc(C(=O)NC4CCN(C)CC4)cc3OC)nc2N1C1CCCC1 [BI-2536]; test: as above; conditions: exposure time: 5 days
Outline: as §1

[6] = compound: T4, CN(C)C/C=C/C(=O)Nc1cc2c(Nc3ccc(F)c(Cl)c3)ncnc2cc1O[C@H]1CCOC1 [AFATINIB]; test: as above; conditions: exposure time: 5 days
Outline: as §1

[7] = compound: T5, C=CC(=O)Nc1cc2c(Nc3ccc(F)c(Cl)c3)ncnc2cc1OCCCN1CCOCC1 [CANERTINIB]; test: as above; conditions: exposure time: 5 days
Outline: as §1

[8] = compound: T6, CCCCCCCCCCCCCCCC(=O)Nc1ccn([C@@H]2O[C@H](CO)[C@@H](O)[C@@H]2C#N)c(=O)n1 [SAPACITABINE]; test: as above; conditions: exposure time: 5 days
Outline: as §1

[9] = compound: T1, MDV3100; test: area under dose-response curve of surviving fraction (unscaled, Aref=0) (surviving fraction x log10(nM)); higher = more resistant; conditions: exposure time: 5 days; dose range 0.5-1000 nM
Outline: (§2)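 Surviving fractions were fitted by 3-parameter logistic regression in the drc R package to give dose-response survival curves. They came from tumour cell lines treated for five days with eight inhibitor concentrations from 0.5 to 1000 nM and read by CellTiter-Glo luminescence against DMSO-only wells. The area under the curve is the unscaled activity area. It was calculated over log10 dose with Aref = 0.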

[10] = compound: Cn1cc(C2=Nc3cc(NC(=O)C(N)C4CCCCC4)cc4c3C2=CNNC4=O)cn1; test: as above; conditions: exposure time: 5 days; dose range 0.5-1000 nM
Outline: as §2

[11] = compound: T2, SNX-5422; test: as above; conditions: exposure time: 5 days; dose range 0.5-1000 nM
Outline: as §2

[12] = compound: T3, BI-2536; test: as above; conditions: exposure time: 5 days; dose range 0.5-1000 nM
Outline: as §2

[13] = compound: T4, AFATINIB; test: as above; conditions: exposure time: 5 days; dose range 0.5-1000 nM
Outline: as §2

[14] = compound: T5, CANERTINIB; test: as above; conditions: exposure time: 5 days; dose range 0.5-1000 nM
Outline: as §2

[15] = compound: T6, SAPACITABINE; test: as above; conditions: exposure time: 5 days; dose range 0.5-1000 nM
Outline: as §2

HCT15 LARGE INTESTINE gave a surviving fraction ([1]; 0.5 nM) of 0.968 ± 0.012, a surviving fraction ([1]; 1 nM) of 0.913 ± 0.05 and a surviving fraction ([1]; 5 nM) of 0.979 ± 0.016. It also gave a surviving fraction ([1]; 10 nM) of 0.967 ± 0.051, a surviving fraction ([1]; 50 nM) of 1.02 ± 0.067 and a surviving fraction ([1]; 100 nM) of 1.06 ± 0.023. The surviving fraction ([1]; 500 nM) was 1.04 ± 0.015, the surviving fraction ([1]; 1000 nM) was 0.995 ± 0.012 and the surviving fraction ([2]; 0.5 nM) was 0.906 ± 0.038. For the same test system, the surviving fraction ([2]; 1 nM) was 0.797 ± 0.11, the surviving fraction ([2]; 5 nM) was 0.862 ± 0.075 and the surviving fraction ([2]; 10 nM) was 0.548 ± 0.11. The surviving fraction ([2]; 50 nM) was 0.938 ± 0.021, the surviving fraction ([2]; 100 nM) was 0.916 ± 0.027 and the surviving fraction ([2]; 500 nM) was 0.968 ± 0.019. For the same test system, the surviving fraction ([2]; 1000 nM) was 0.716 ± 0.1, the surviving fraction ([3]; 0.5 nM) was 0.997 ± 0.079 and the surviving fraction ([3]; 1 nM) was 1.05 ± 0.034. The surviving fraction ([3]; 5 nM) was 1.07 ± 0.0081, the surviving fraction ([3]; 10 nM) was 1.05 ± 0.037 and the surviving fraction ([3]; 50 nM) was 1 ± 0.063. It also gave a surviving fraction ([3]; 100 nM) of 1.05 ± 0.045, a surviving fraction ([3]; 500 nM) of 1 ± 0.031 and a surviving fraction ([3]; 1000 nM) of 0.951 ± 0.028. It also gave a surviving fraction ([4]; 0.5 nM) of 1.05 ± 0.018, a surviving fraction ([4]; 1 nM) of 1.03 ± 0.029 and a surviving fraction ([4]; 5 nM) of 1.06 ± 0.051. The surviving fraction ([4]; 10 nM) was 1.09 ± 0.022, the surviving fraction ([4]; 50 nM) was 0.77 ± 0.12 and the surviving fraction ([4]; 100 nM) was 0.303 ± 0.03. The surviving fraction ([4]; 500 nM) was 0.0797 ± 0.0015, the surviving fraction ([4]; 1000 nM) was 0.074 ± 0.009 and the surviving fraction ([5]; 0.5 nM) was 1.08 ± 0.044. It also gave a surviving fraction ([5]; 1 nM) of 1.04 ± 0.011, a surviving fraction ([5]; 5 nM) of 1.07 ± 0.026 and a surviving fraction ([5]; 10 nM) of 0.887 ± 0.032. For the same test system, the surviving fraction ([5]; 50 nM) was 0.334 ± 0.048, the surviving fraction ([5]; 100 nM) was 0.0687 ± 0.014 and the surviving fraction ([5]; 500 nM) was 0.069 ± 0.004. It also gave a surviving fraction ([5]; 1000 nM) of 0.0617 ± 0.0076, a surviving fraction ([6]; 0.5 nM) of 1.12 ± 0.03 and a surviving fraction ([6]; 1 nM) of 1.05 ± 0.02. The surviving fraction ([6]; 5 nM) was 1.04 ± 0.064, the surviving fraction ([6]; 10 nM) was 1.05 ± 0.027 and the surviving fraction ([6]; 50 nM) was 1.1 ± 0.052. The surviving fraction ([6]; 100 nM) was 1.06 ± 0.068, the surviving fraction ([6]; 500 nM) was 0.97 ± 0.081 and the surviving fraction ([6]; 1000 nM) was 0.632 ± 0.063. For the same test system, the surviving fraction ([7]; 0.5 nM) was 0.868 ± 0.082, the surviving fraction ([7]; 1 nM) was 0.78 ± 0.053 and the surviving fraction ([7]; 5 nM) was 0.775 ± 0.11. It also gave a surviving fraction ([7]; 10 nM) of 0.79 ± 0.064, a surviving fraction ([7]; 50 nM) of 0.852 ± 0.035 and a surviving fraction ([7]; 100 nM) of 0.869 ± 0.068. It also gave a surviving fraction ([7]; 500 nM) of 0.843 ± 0.079, a surviving fraction ([7]; 1000 nM) of 0.841 ± 0.076 and a surviving fraction ([8]; 0.5 nM) of 0.76 ± 0.048. It also gave a surviving fraction ([8]; 1 nM) of 0.693 ± 0.056, a surviving fraction ([8]; 5 nM) of 0.713 ± 0.064 and a surviving fraction ([8]; 10 nM) of 0.298 ± 0.063. It also gave a surviving fraction ([8]; 50 nM) of 0.458 ± 0.074, a surviving fraction ([8]; 100 nM) of 0.143 ± 0.021 and a surviving fraction ([8]; 500 nM) of 0.141 ± 0.013. For the same test system, the surviving fraction ([8]; 1000 nM) was 0.0447 ± 0.0085, the “area under dose-response curve” value [9] was 2.75 and the “area under dose-response curve” value [10] was 3.4. For the same test system, the “area under dose-response curve” value [11] was 2.24, the “area under dose-response curve” value [12] was 1.88 and the “area under dose-response curve” value [13] was 3.26. For the same test system, the “area under dose-response curve” value [14] was 2.73 and the “area under dose-response curve” value [15] was 1.34.
